Like-named read-outs stand apart in the source and are kept apart here.
Columns and labels:
USP7 CD + UBL 1-5 = target: T1, USP7 CD + UBL 1-5 (Homo sapiens, UniProt Q93009); assay: Surface plasmon resonance assay (SPR); assay type: binding
T1 construct: USP7 CD +
Method: The surface plasmon resonance experiments were performed using a Cytiva (formerly GE Healthcare) Biacore 8K equipped with a Series S Sensor Chip SA. The ligands were immobilized via a biotin-modified biotin acceptor peptide. USP7 Ligands were diluted in running buffer (HBS-P+2% DMSO; 10 mM HEPES, pH 7.4, 150 mM NaCl, 1 mM DTT, 0.05% P20, 2% DMSO) to 100 μg/mL and injected at […] until a density between 500-10,000 RU was reached on flow-cell two of each channel, and flow cell one was left blank to serve as a reference surface. Both surfaces were washed until a stable baseline was achieved then 30 startup cycles to condition the surface. To collect kinetic and steady-state binding data, the small molecule analytes were prepared in three-fold dilution series in HBS-P+2% DMSO running buffer. Analytes were injected over both flow cells at a flow rate of […] at 25° C. The complex was allowed to associate for 60 seconds and dissociate for 300 seconds. Data were collected at 10 Hz. The data were fit to a simple 1:1 interaction model global data analysis within Cytiva Biacore Insight Evaluation Software.

USP7 = USP7 (Homo sapiens, UniProt Q93009); assay: Ub-Rho cleavage assay; assay type: biochemical; conditions: Ub-Rho substrate, recombinant USP7; read-out: Ub (Rho) USP7.1 (IC50)
Method: All fluorescence measurements were performed on a Molecular Devices FlexStation3 with excitation at 480 nm and emission 540 nm, PMT Gain: Medium, Flash Number: 10. […] Assay buffer for all measurements was 50 mM HEPES, 100 mM NaCl, 0.5 mM EDTA, 1 mM TCEP, 0.1 mg/ml BSA, 0.01% Tween-20, pH 7.8. […] Serial dilutions were made with a Mosquito HTS (SPT Labtech) nanoliter liquid handler. 200 nL of each compound in duplicate or DMSO control were transferred to the assay plate. The first two columns served as positive controls. 9.8 μl per well of USP7 working solution was added to the assay plate. Compound+Protein was incubated for 25 min at 25° C. 10 uL of Ub-Rho substrate was added per well and incubated for an additional 15 min at 25° C. Fluorescence was then measured. Percent response relative to DMSO controls was calculated in GraphPad or Scinamic, and the data was fitted to a non-linear regression to determine IC50 values.

[1] = steady-state KD, read-out: SPR USP7 CD + UBL 1-5 (KD_ss)

USP7, sequence (Q93009 whole entry): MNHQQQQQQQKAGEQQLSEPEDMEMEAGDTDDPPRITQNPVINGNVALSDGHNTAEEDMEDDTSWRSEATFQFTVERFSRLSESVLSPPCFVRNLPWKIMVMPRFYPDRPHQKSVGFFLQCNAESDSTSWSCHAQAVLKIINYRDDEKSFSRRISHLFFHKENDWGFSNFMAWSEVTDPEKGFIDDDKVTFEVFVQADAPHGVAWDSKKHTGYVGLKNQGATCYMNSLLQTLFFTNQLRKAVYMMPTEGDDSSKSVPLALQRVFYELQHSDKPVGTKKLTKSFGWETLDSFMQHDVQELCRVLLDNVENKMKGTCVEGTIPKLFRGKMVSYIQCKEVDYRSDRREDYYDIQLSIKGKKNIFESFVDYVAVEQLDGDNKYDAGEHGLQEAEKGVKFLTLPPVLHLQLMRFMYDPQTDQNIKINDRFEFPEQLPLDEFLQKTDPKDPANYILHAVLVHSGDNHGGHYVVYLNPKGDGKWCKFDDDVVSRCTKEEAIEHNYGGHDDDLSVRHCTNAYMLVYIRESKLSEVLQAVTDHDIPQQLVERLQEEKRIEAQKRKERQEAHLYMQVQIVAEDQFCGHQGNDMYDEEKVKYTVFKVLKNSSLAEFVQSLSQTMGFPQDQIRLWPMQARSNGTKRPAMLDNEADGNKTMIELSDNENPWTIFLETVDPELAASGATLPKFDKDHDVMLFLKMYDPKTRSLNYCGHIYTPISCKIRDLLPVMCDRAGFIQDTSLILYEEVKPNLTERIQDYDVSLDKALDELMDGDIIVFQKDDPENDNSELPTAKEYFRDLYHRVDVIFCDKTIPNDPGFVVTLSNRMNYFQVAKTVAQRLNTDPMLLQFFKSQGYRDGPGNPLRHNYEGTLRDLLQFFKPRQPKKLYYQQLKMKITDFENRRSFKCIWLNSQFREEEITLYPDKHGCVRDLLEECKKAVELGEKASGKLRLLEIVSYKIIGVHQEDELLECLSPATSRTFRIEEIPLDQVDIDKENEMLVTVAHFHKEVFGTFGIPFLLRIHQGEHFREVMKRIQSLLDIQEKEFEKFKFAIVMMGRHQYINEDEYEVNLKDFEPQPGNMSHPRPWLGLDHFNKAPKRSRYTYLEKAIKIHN
T1 sequence (Q93009 208-1102 limits assumed): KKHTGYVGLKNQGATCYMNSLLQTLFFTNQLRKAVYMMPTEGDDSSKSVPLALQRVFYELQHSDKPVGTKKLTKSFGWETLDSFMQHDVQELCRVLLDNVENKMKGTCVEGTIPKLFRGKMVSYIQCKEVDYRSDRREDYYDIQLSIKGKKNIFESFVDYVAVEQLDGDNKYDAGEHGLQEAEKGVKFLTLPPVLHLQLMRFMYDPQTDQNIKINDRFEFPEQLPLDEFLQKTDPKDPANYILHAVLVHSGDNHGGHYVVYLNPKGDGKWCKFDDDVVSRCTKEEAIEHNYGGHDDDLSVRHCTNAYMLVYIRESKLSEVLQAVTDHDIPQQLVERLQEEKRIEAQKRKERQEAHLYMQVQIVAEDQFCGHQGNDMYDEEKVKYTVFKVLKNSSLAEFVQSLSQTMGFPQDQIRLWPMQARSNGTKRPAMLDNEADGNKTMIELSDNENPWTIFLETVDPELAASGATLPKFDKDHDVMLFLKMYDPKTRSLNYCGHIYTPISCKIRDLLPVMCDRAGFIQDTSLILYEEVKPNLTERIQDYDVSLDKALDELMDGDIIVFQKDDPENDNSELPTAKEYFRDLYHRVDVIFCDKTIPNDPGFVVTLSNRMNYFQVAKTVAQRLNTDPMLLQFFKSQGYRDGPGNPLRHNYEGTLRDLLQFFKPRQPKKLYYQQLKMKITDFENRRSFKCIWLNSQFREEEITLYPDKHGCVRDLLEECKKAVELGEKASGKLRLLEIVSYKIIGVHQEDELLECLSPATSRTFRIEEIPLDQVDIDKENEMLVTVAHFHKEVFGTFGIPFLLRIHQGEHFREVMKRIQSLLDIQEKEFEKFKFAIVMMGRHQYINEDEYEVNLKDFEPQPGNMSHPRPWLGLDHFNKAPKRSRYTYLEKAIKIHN

Structure (SMILES)	Kd (USP7 CD + UBL 1-5; [1]) [µM]	IC50 (USP7) [µM]	Kd (USP7 CD + UBL 1-5; kinetic KD, read-out: SPR USP7 CD + UBL 1-5 (KD_kinetic)) [µM]
CCc1c(-c2ccc(C(=O)NCCCNC(=O)CCCCCCNC(=O)OC(C)(C)C)nc2)cnc(N)c1-c1ccc(O)cc1 [U51]	1 to 100	> 100	–
CCc1c(-c2ccc(C(=O)NCCCNC(=O)CCCCCCCNC(=O)OC(C)(C)C)nc2)cnc(N)c1-c1ccc(O)cc1 [U52]	1 to 100	> 100	–
CCc1c(-c2ccc(C(=O)NCCCNC(=O)CCNC(=O)OC(C)(C)C)nc2)cnc(N)c1-c1ccc(O)cc1 [U53]	1 to 100	1 to 100	–
CCc1c(-c2ccc(C(=O)NCCCNC(=O)CCCCCCCCNC(=O)OC(C)(C)C)nc2)cnc(N)c1-c1ccc(O)cc1 [U54]	1 to 100	> 100	–
CCc1c(-c2ccc(C(=O)NCCCNC(=O)CCOCCNC(=O)OC(C)(C)C)nc2)cnc(N)c1-c1ccc(O)cc1 [U55]	1 to 100	1 to 100	–
CCc1c(-c2ccc(C(=O)NCCCNC(=O)CCOCCOCCNC(=O)OC(C)(C)C)nc2)cnc(N)c1-c1ccc(O)cc1 [U56]	1 to 100	1 to 100	–
CCc1c(-c2ccc(C(=O)NCCCNC(=O)CCOCCOCCOCCNC(=O)OC(C)(C)C)nc2)cnc(N)c1-c1ccc(O)cc1 [U57]	1 to 100	1 to 100	–
CCc1c(-c2ccc(C(=O)NCCCNC(=O)CCOCCOCCOCCOCCNC(=O)OC(C)(C)C)nc2)cnc(N)c1-c1ccc(O)cc1 [U58]	1 to 100	1 to 100	–
C[C@H](CC(=O)N1CCC(O)(Cn2cnc(N3CCN(CCN)CC3)cc2=O)CC1)c1ccccc1 [U59]	< 1	1 to 100	–
CCc1c(-c2ccc3[nH]ncc3c2)cnc(CNC(=O)OC(C)(C)C)c1-c1ccc(O)cc1 [U60]	1 to 100	1 to 100	–
CCc1c(-c2ccc(C(=O)NCCN)nc2)cnc(N)c1-c1ccc(O)cc1 [U61]	< 1	< 1	–
CCc1c(-c2ccc(C(=O)NC)nc2)cnc(NCCN)c1-c1ccc(O)cc1 [U62]	< 1	1 to 100	–
CCc1c(-c2ccc3[nH]ncc3c2)cnc(CN)c1-c1ccc(O)cc1 [U63]	1 to 100	1 to 100	–
CCc1c(-c2ccc(O)cc2)cnc(C=O)c1-c1ccc(O)cc1 [U64]	1 to 100	1 to 100	–
CCc1c(-c2ccc3[nH]ncc3c2)cnc(C=O)c1-c1ccc(O)cc1 [U65]	1 to 100	1 to 100	–
CC(C)(C)OC(=O)N1CCC(C(=O)Nc2nc3ccc(N(S(=O)(=O)c4cccs4)S(=O)(=O)c4cccs4)cc3s2)CC1 [U66]	1 to 100	> 100	–
O=C(Nc1nc2ccc(NS(=O)(=O)c3cccs3)cc2s1)C1CCNCC1 [U67]	1 to 100	> 100	–
O=C(Nc1nc2ccc(NS(=O)(=O)c3cccs3)cc2s1)c1ccco1 [U68]	1 to 100	> 100	–
C[C@H](CC(=O)N1CCC(O)(Cn2cnc(NCCN3CCN(CCN=[N+]=[N-])CC3)cc2=O)CC1)c1ccccc1 [U69]	< 1	< 1	–
CCc1c(-c2ccc(C(=O)NC)nc2)ccc(NCCN=[N+]=[N-])c1-c1ccc(O)cc1 [U70]	1 to 100	1 to 100	–

Structure (SMILES)	Kd (USP7 CD + UBL 1-5; [1]) [µM]	IC50 (USP7) [µM]	Kd (USP7 CD + UBL 1-5; kinetic KD, read-out: SPR USP7 CD + UBL 1-5 (KD_kinetic)) [µM]
CCc1c(-c2ccc(O)cc2)cnc(NCCN=[N+]=[N-])c1-c1ccc(C(=O)NC)nc1 [U71]	< 1	1 to 100	–
CN1CCC(C(=O)Nc2nc3ccc(NS(=O)(=O)c4ccc5c(c4)CC(=O)N5C)cc3s2)CC1 [U72]	> 100	> 100	–
CCn1cc(S(=O)(=O)Nc2ccc3nc(NC(=O)C4CCN(C)CC4)sc3c2)cn1 [U73]	> 100	1 to 100	–
CN1CCC(C(=O)Nc2nc3ccc(NS(=O)(=O)CC4CC4)cc3s2)CC1 [U74]	1 to 100	> 100	–
CN1CCC(C(=O)Nc2nc3ccc(N(C)S(=O)(=O)c4cccs4)cc3s2)CC1 [U75]	> 100	> 100	–
CCc1c(-c2ccc3n[nH]cc3c2)cnc(CNC(=O)OC(C)C)c1-c1ccc(O)cc1 [U76]	1 to 100	1 to 100	–
CN1CCCn2nc(C(=O)Nc3nc4ccc(NS(=O)(=O)c5cccs5)cc4s3)cc2C1 [U77]	1 to 100	> 100	1 to 100
CCOC(=O)NCc1ccc(-c2ccc3n[nH]cc3c2)c(CC)c1-c1ccc(O)cc1 [U78]	1 to 100	1 to 100	–
CN1CCC(C(=O)Nc2nc3ncc(NS(=O)(=O)c4cccs4)cc3s2)CC1 [U79]	> 100	> 100	–
CS(=O)(=O)c1nccc(Nc2nc3ccc(NS(=O)(=O)c4cccs4)cc3s2)n1 [U80]	1 to 100	> 100	–
Cc1ccsc1S(=O)(=O)Nc1ccc2nc(NC(=O)C3CCN(C)CC3)sc2c1 [U81]	1 to 100	> 100	–
CCc1c(-c2ccc3c(cnn3CCN)c2)cnc(CNC(=O)OC(C)(C)C)c1-c1ccc(O)cc1 [U82]	1 to 100	1 to 100	–
NCc1cc(Nc2nc3ccc(NS(=O)(=O)c4cccs4)cc3s2)ncn1 [U83]	1 to 100	> 100	–
O=C(O)c1ccc(Nc2nc3ccc(NS(=O)(=O)c4cccs4)cc3s2)nn1 [U84]	1 to 100	> 100	–
O=C(O)c1ccnc(Nc2nc3ccc(NS(=O)(=O)c4cccs4)cc3s2)n1 [U85]	> 100	> 100	–
CCc1c(-c2ccc3[nH]ncc3c2)c(C#N)nc(CNC(=O)OC(C)(C)C)c1-c1ccc(O)cc1 [U86]	1 to 100	1 to 100	–
NCc1ccc(Nc2nc3ccc(NS(=O)(=O)c4cccs4)cc3s2)nc1 [U87]	1 to 100	> 100	–
CN1CCC(C(=O)Nc2nc3cc(NS(=O)(=O)c4cccs4)ccc3s2)CC1 [U88]	> 100	> 100	–
CN1CCC(C(=O)Nc2nc3ccc(NS(=O)(=O)N4CC(F)C4)cc3s2)CC1 [U89]	> 100	> 100	–
Cc1nocc1S(=O)(=O)Nc1ccc2nc(NC(=O)C3CCN(C)CC3)sc2c1 [U90]	1 to 100	> 100	–

Structure (SMILES)	Kd (USP7 CD + UBL 1-5; [1]) [µM]	IC50 (USP7) [µM]	Kd (USP7 CD + UBL 1-5; kinetic KD, read-out: SPR USP7 CD + UBL 1-5 (KD_kinetic)) [µM]
CN1CCC(C(=O)Nc2nc3ccc(NS(=O)(=O)c4cn5c(n4)CCC5)cc3s2)CC1 [U91]	1 to 100	> 100	–
CN1CCC(NC(=O)c2nc3ccc(NS(=O)(=O)c4cccs4)cc3s2)CC1 [U92]	> 100	> 100	–
CN1CCC(C(=O)Nc2nc3ccc(NS(=O)(=O)c4cnccn4)cc3s2)CC1 [U93]	1 to 100	> 100	–
NCCN(c1ccc2nc(NC(=O)c3ccco3)sc2c1)S(=O)(=O)c1cccs1 [U94]	1 to 100	> 100	–
CN1CCC(C(=O)Nc2nc3ccc(NS(=O)(=O)c4cnc(Cl)s4)cc3s2)CC1 [U95]	> 100	> 100	–
CC(=O)N1CCCn2nc(C(=O)Nc3nc4ccc(NS(=O)(=O)c5cccs5)cc4s3)cc2C1 [U96]	1 to 100	> 100	–
CN1CCn2cnc(C(=O)Nc3nc4ccc(NS(=O)(=O)c5cccs5)cc4s3)c2C1 [U97]	1 to 100	> 100	–
O=C(Nc1nc2ccc(NS(=O)(=O)c3cccs3)cc2s1)c1cc2n(n1)CCCN(C1CC1)C2 [U98]	1 to 100	1 to 100	–
CN1CCn2cc(C(=O)Nc3nc4ccc(NS(=O)(=O)c5cccs5)cc4s3)nc2C1 [U99]	1 to 100	> 100	–
NCc1cc(Nc2nc3ccc(NS(=O)(=O)c4cn5c(n4)CCC5)cc3s2)ncn1 [U100]	1 to 100	> 100	–
CN(C)Cc1cc(C(=O)Nc2nc3ccc(NS(=O)(=O)c4cccs4)cc3s2)nn1C [U101]	1 to 100	> 100	–
CN1CCCn2nc(C(=O)Nc3nc4ccc(NS(=O)(=O)c5cn6c(n5)CCC6)cc4s3)cc2C1 [U102]	1 to 100	> 100	–
CN1CCCn2nc(C(=O)Nc3nc4ccc(NS(=O)(=O)c5cccnc5)cc4s3)cc2C1 [U103]	1 to 100	> 100	–
CN1CCCn2nc(C(=O)Nc3nc4ccc(NS(=O)(=O)c5ccccn5)cc4s3)cc2C1 [U104]	1 to 100	> 100	–
Cn1nc(C(=O)Nc2nc3ccc(NS(=O)(=O)c4cccs4)cc3s2)cc1CN1CCC(CO)CC1 [U105]	1 to 100	> 100	–
CN1CCCn2nc(C(=O)Nc3nc4ccc(NS(=O)(=O)c5cnccn5)cc4s3)cc2C1 [U106]	> 100	> 100	–
Cn1ccc(C(=O)Nc2nc3ccc(NS(=O)(=O)c4cccs4)cc3s2)n1 [U107]	1 to 100	> 100	–
CN1CCCn2nc(C(=O)Nc3nc4ccc(N(CCN)S(=O)(=O)c5cccs5)cc4s3)cc2C1 [U108]	> 100	> 100	–
CN1CCCn2nc(C(=O)Nc3nc4ccc(NS(=O)(=O)c5ccncc5)cc4s3)cc2C1 [U109]	> 100	> 100	–

— patent US20240358842A1, “PROTEIN STABILIZING COMPOUNDS CONTAINING USP7 LIGANDS” (Stablix, Inc., priority 2021, published 2024)
